The source made the active and inactive calls. The calls are words filed in the database; no cut-off is given here.

Data set [1] concerns CCRF-CEM. Briefly: Resistance index, ratio of IC50 for human CEM/ADR5000 cells to IC50 for human CCRF-CEM cells. The class given is functional.
Data set [2] has as its system Human betaherpesvirus 5. As to the kind of experiment: Antiviral activity against Human cytomegalovirus AD169 expressing GFP infected in HFF assessed as inhibition of viral replication after 7 days. It counts as functional, organism-based.
In data set [3] the test system is Plasmodium falciparum. Briefly: Antimalarial activity against Plasmodium falciparum 3D7 infected in human erythrocytes assessed as parasite growth inhibition after 72 hrs by SYBR Green I assay. The class given is functional, organism-based. Conditions: 3D7, 72 h.
The test system of data set [4] is CCRF-CEM. Briefly: Cytotoxicity against human CCRF-CEM cells assessed as cell viability after 72 hrs by resazurin assay. The class given is functional, cell-based.
The nature of data set [5]: Cytotoxicity against human CEM/ADR5000 cells assessed as cell viability after 72 hrs by resazurin assay. The class given is functional, cell-based. Conditions: ADR5000, 72 h. For orientation: The colour change of resazurin is a common sign of viable cells or microbes.
Data set [6] can be described thus: Stability of the compound in freezing/thawing condition. The class given is physicochemical.
A short description of data set [7]: Stability of the compound up to 56 degC. The class given is physicochemical.
Data set [8] deals with HFF. As to the kind of experiment: Cytotoxicity against HFF up to 10 uM by light microscopic analysis. It counts as cell-based. Conditions: human.
The subject of data set [9] is HFF. Briefly: Cytotoxicity against HFF up to 10 uM by fluorescence microscopic analysis. The class given is cell-based. As to conditions: human.
Data set [10] is described as follows: Potency index, ratio of doxorubicin IC50 to compound IC50 for human CEM/ADR5000 cells. The class given is functional.
Data set [11] deals with ADR5000. Briefly: Cytotoxicity against human CEM/ADR5000 cells assessed as cell viability at 400 uM after 72 hrs by resazurin assay. It counts as functional, cell-based.
For data set [12], the system named is Plasmodium falciparum. Briefly: Antimalarial activity against Plasmodium falciparum NF54 infected in human erythrocytes after 48 hrs by [3H]hypoxanthine incorporation assay. It counts as functional, organism-based.
[13] abbreviates: Human betaherpesvirus 5, AD169, 168 h, read-out: IC50.

As for `C[C@@H]1CC[C@H]2[C@@H](C)C(=O)O[C@@H]3O[C@@]4(C)CC[C@@H]1[C@]32OO4` [ARTEMISININ], the “Ratio IC50” value in [1] amounted to 0.73. Besides, the IC50 in [2] (setting [13]) was more than 10000 nM.
For the molecule `C[C@H]1[C@@H](O)O[C@@H]2O[C@@]3(C)CC[C@H]4[C@H](C)CC[C@@H]1[C@@]24OO3` [ARTENIMOL], the IC50 in data set [3] was 2.5 nM; in data set [4] it was 90 nM; in [5], 270 nM; in data set [2] (setting [13]) it was more than 10000 nM. Moreover, the “Ratio IC50” value in data set [1] is 3.
`C[C@H]1[C@H](OC(=O)CCC(=O)OCC(C[C@H]2O[C@@H]3O[C@@]4(C)CC[C@H]5[C@H](C)CC[C@@H]([C@H]2C)[C@@]35OO4)C[C@H]2O[C@@H]3O[C@@]4(C)CC[C@H]5[C@H](C)CC[C@@H]([C@H]2C)[C@@]35OO4)O[C@@H]2O[C@@]3(C)CC[C@H]4[C@H](C)CC[C@@H]1[C@@]24OO3`: the IC50 in data set [3] was 12.8 nM; in [4], 2 nM; in data set [5], 200 nM; in [2] (setting [13]), 40 nM. The figures for the “Ratio IC50” value in [1] and in data set [10] were 100 and 3, respectively. Moreover, the Stability result in data set [6] and in data set [7] was “Stable” throughout. Further, the Activity entry in data set [8] and in [9] was “Non-toxic” each time.
`C[C@H]1[C@@H](CCCO)O[C@@H]2O[C@@]3(C)CC[C@H]4[C@H](C)CC[C@@H]1[C@@]24OO3`: the IC50 is 11.6 nM in [3] and 174000 nM in [4]. Moreover, the outcome in data set [11] was inactive.
Regarding `C[C@H]1[C@@H](CCCOC(=O)C[C@H]2O[C@@H]3O[C@@]4(C)CC[C@H]5[C@H](C)CC[C@@H]([C@H]2C)[C@@]35OO4)O[C@@H]2O[C@@]3(C)CC[C@H]4[C@H](C)CC[C@@H]1[C@@]24OO3`, the IC50 worked out at 2.6 nM in data set [3], 90 nM in data set [4], 200 nM in data set [5] and 310 nM in data set [2] (setting [13]). For the same molecule, the “Ratio IC50” value in [1] was determined as 2.22; in data set [10], 3.
For `C[C@H]1[C@H](OC(=O)CCC(=O)NCCCCCCCCNC(=O)CCC(=O)O[C@@H]2O[C@@H]3O[C@@]4(C)CC[C@H]5[C@H](C)CC[C@@H]([C@H]2C)[C@@]35OO4)O[C@@H]2O[C@@]3(C)CC[C@H]4[C@H](C)CC[C@@H]1[C@@]24OO3`, the IC50 in data set [2] (setting [13]) is more than 10000 nM.
Regarding `C[C@H]1[C@H](OC(=O)CCC(=O)NCC(O)CNC(=O)CCC(=O)O[C@@H]2O[C@@H]3O[C@@]4(C)CC[C@H]5[C@H](C)CC[C@@H]([C@H]2C)[C@@]35OO4)O[C@@H]2O[C@@]3(C)CC[C@H]4[C@H](C)CC[C@@H]1[C@@]24OO3` (stereo not given in full), the IC50 in [2] (setting [13]) was 2070 nM.
On to `C[C@H]1[C@H](OC(=O)CCC(=O)O[C@@H]2O[C@@H]3O[C@@]4(C)CC[C@H]5[C@H](C)CC[C@@H]([C@H]2C)[C@@]35OO4)O[C@@H]2O[C@@]3(C)CC[C@H]4[C@H](C)CC[C@@H]1[C@@]24OO3`, for which the IC50 in data set [3] came out at 2.6 nM; in data set [4] it was 2750 nM; in data set [5] it was 2790 nM; in data set [2] (setting [13]), 1040 nM. Moreover, the “Ratio IC50” value in data set [1] came out at 1.01.
The like results for `C[C@H]1[C@H](OC(=O)CCC(=O)O)O[C@@H]2O[C@@]3(C)CC[C@H]4[C@H](C)CC[C@@H]1[C@@]24OO3` [ARTESUNATE] were, in that order, 9 nM, 70 nM, 190 nM, 3800 nM and 2.71.
As to `COc1cccc2c1C(=O)c1c(O)c3c(c(O)c1C2=O)C[C@@](O)(C(=O)CO)C[C@@H]3O[C@H]1C[C@H](N)[C@H](O)[C@H](C)O1` [DOXORUBICIN], the IC50 was 3 nM in data set [4] and 1610 nM in [5]. Further, the “Ratio IC50” value in [1] turned out to be 536.67.
For the molecule `C[C@H]1[C@@H](CC(CO)C[C@H]2O[C@@H]3O[C@@]4(C)CC[C@H]5[C@H](C)CC[C@@H]([C@H]2C)[C@@]35OO4)O[C@@H]2O[C@@]3(C)CC[C@H]4[C@H](C)CC[C@@H]1[C@@]24OO3` (stereo not given in full), the IC50 stood at 1.1 nM in data set [3], 0.87 nM in data set [12], 20 nM in data set [4] and 50 nM in data set [5]. The “Ratio IC50” value in data set [1] turned out to be 2.5.
`Nc1nc2c(ncn2COC(CO)CO)c(=O)[nH]1` [GANCICLOVIR]: the IC50 in data set [2] (setting [13]) was 2600 nM.
Consider `C[C@H]1[C@@H](OCC(C[C@H]2O[C@@H]3O[C@@]4(C)CC[C@H]5[C@H](C)CC[C@@H]([C@H]2C)[C@@]35OO4)C[C@H]2O[C@@H]3O[C@@]4(C)CC[C@H]5[C@H](C)CC[C@@H]([C@H]2C)[C@@]35OO4)O[C@@H]2O[C@@]3(C)CC[C@H]4[C@H](C)CC[C@@H]1[C@@]24OO3`, for which the IC50 in data set [3] was 12.8 nM; in data set [4], 2 nM; in data set [5], 490 nM; in data set [2], “ND(toxic)”. Also, the “Ratio IC50” value is on record as 245 in data set [1] and 3 in data set [10]. Also, the Activity entry in data set [8] and in data set [9] was “Non-toxic” each time.

A word on the IC50: it is the concentration needed to halve the response being measured.

The record behind these values is ChEMBL document CHEMBL3600384, “Highly potent artemisinin-derived dimers and trimers: Synthesis and evaluation of their antimalarial, antileukemia and antiviral activities” (Bioorg Med Chem, 2015).
